Assay results as given in patent US10519177B2, “Heterocyclic compounds and uses thereof” (Plexxikon Inc., priority 2013, dated 2019).
Like-named read-outs stand apart in the source and are kept apart here.

Key:
[1] = target: BRD4-BD12 (1-477) (Homo sapiens (Human), UniProt O60885); test: Alphascreen binding assay BRD4-BD12; settings: BRD4(1 2) H4; read-out: Biochemical activity (IC50 μM) BRD4(1 2) H4
Method in brief: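 First, compound was preincubated 1 h at room temperature with the His-tagged BRD4 protein (BD1 44-164 or tandem BD12 1-477) and acetylated H4 peptide. Next, donor and acceptor beads were added at 7.5 μg/ml final. After 30 min, AlphaScreen emission was recorded.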

[2] = test system: MV-4-11 cells; test: Oncology cell growth assay MV-4-11 (CellTiter Glo); assay type: cell-based; settings: Homo sapiens, MV4-11, 72 h, read-out: Cell activity (IC50 μM) MV-4-11 3d-Growth
Method in brief: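 MV-4-11 AML cells (MLL-AF4), 3000 per well, exposed to 8-point 1:3 compound titration from 10 μM top concentration (0.2% DMSO) for 72 h. Viability by CellTiter Glo luminescence, normalized to DMSO controls; pIC50 from four-parameter curve fit.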

[3] = test system: bromodomain; test: at least one of the bromodomain cell assays of Example 57; assay type: cell-based; settings: at least one of the bromodomain cell assays described in Example 57; read-out: IC50 in at least one of the bromodomain cell assays

SMILES | IC50 [1] | IC50 [2] | IC50 [3] | IC50 ([2]; MV-4-11, 3d growth)
Cc1nnn(C)c1-c1cnc2c(-c3ccc(C(=O)O)cc3)cn(CC3CCC(F)(F)CC3)c2c1 [P-0377, 4-[1-[(4,4-difluorocyclohexyl)methyl]-6-(3,5-dimethyltriazol-4-yl)pyrrolo[3,2-b]pyridin-3-yl]benzoic acid] | < 1 µM | < 1 µM | < 10 µM | –
Cc1noc(C)c1-c1cnc2c(-c3ccc(C(=O)O)c(F)c3F)cn(CC3CCC(F)(F)CC3)c2c1 [P-0416, 4-[1-[(4,4-difluorocyclohexyl)methyl]-6-(3,5-dimethylisoxazol-4-yl)pyrrolo[3,2-b]pyridin-3-yl]-2,3-difluoro-benzoic acid] | < 1 µM | < 1 µM | < 10 µM | –
Cc1noc(C)c1-c1cnc2c(-c3ccc(CCC(=O)O)cc3)cn(CC3CCC(F)(F)CC3)c2c1 [P-0530, 3-[4-[1-[(4,4-difluorocyclohexyl)methyl]-6-(3,5-dimethylisoxazol-4-yl)pyrrolo[3,2-b]pyridin-3-yl]phenyl]propanoic acid] | < 1 µM | – | < 10 µM | < 1 µM
Cc1noc(C)c1-c1cnc2c(-c3ccc(CC(=O)O)cc3)cn(CC3(C)CCOCC3)c2c1 [P-0776, 2-[4-[6-(3,5-dimethylisoxazol-4-yl)-1-[(4-methyltetrahydrpyran-4-yl)methyl]pyrrolo[3,2-b]pyridin-3-yl]phenyl]acetic acid] | < 1 µM | – | < 10 µM | 1 to 10 µM
Cc1noc(C)c1-c1cnc2c(-c3ccc(=O)n(C)c3)cn(CC3CCC(F)(F)CC3)c2c1 [P-0408, 5-[1-[(4,4-difluorocyclohexyl)methyl]-6-(3,5-dimethylisoxazol-4-yl)pyrrolo[3,2-b]pyridin-3-yl]-1-methyl-pyridin-2-one] | < 1 µM | < 1 µM | < 10 µM | –
[2H]C([2H])(C1CCC(F)(F)CC1)n1cc(-c2ccc(C(=O)OC)cc2)c2ncc(-c3c(C)noc3C)cc21 [P-0538, methyl 4-[1-[dideuterio-(4,4-difluorocyclohexyl)methyl]-6-(3,5-dimethylisoxazol-4-yl)pyrrolo[3,2-b]pyridin-3-yl]benzoate] | < 1 µM | – | < 10 µM | < 1 µM
Cc1noc(C)c1-c1cnc2c(-c3ccc(C(=O)O)cc3)cn([C@H](C)c3ccccc3)c2c1 [P-0583, 4-[6-(3,5-dimethylisoxazol-4-yl)-1-[(1R)-1-phenylethyl]pyrrolo[3,2-b]pyridin-3-yl]benzoic acid] | < 1 µM | – | < 10 µM | < 1 µM
Cc1cc(-c2cn(CC3CCC(F)(F)CC3)c3cc(-c4c(C)noc4C)cnc23)ccc1C(=O)O [P-0483, 4-[1-[(4,4-difluorocyclohexyl)methyl]-6-(3,5-dimethylisoxazol-4-yl)pyrrolo[3,2-b]pyridin-3-yl]-2-methyl-benzoic acid] | < 1 µM | – | < 10 µM | < 1 µM
Cn1cc(-c2cnc3c(-c4cnn(CC(F)(F)F)c4)cn(CC4CCC(F)(F)CC4)c3c2)ccc1=O [P-0436, 5-[1-[(4,4-difluorocyclohexyl)methyl]-3-[1-(2,2,2-trifluoroethyl)pyrazol-4-yl]pyrrolo[3,2-b]pyridin-6-yl]-1-methyl-pyridin-2-one] | < 1 µM | – | < 10 µM | < 1 µM
Cc1noc(C)c1-c1cnc2c(-c3ccc(NS(C)(=O)=O)cc3)cn(CC3(F)CCCCC3)c2c1 [P-0495, N-[4-[6-(3,5-dimethylisoxazol-4-yl)-1-[(1-fluorocyclohexyl)methyl]pyrrolo[3,2-b]pyridin-3-yl]phenyl]methanesulfonamide] | < 1 µM | – | < 10 µM | < 1 µM
Cc1noc(C)c1-c1cnc2c(-c3ccc(F)c(C(=O)O)c3)cn(CC3CCC(F)(F)CC3)c2c1 [P-0414, 5-[1-[(4,4-difluorocyclohexyl)methyl]-6-(3,5-dimethylisoxazol-4-yl)pyrrolo[3,2-b]pyridin-3-yl]-2-fluoro-benzoic acid] | < 1 µM | < 1 µM | < 10 µM | –
